# From patent US8268856B2, “Method to use compositions having antidepressant anxiolytic and other neurological activity and compositions of matter” (priority 2007, dated 2012)
# Entries after “also recorded” stand apart in the source; their conditions may differ. Where two headings read alike, the source gives them in different places.
# Legend:
# male Swiss Webster mice [1] = test: Porsolt forced swim test (FST); type: in vivo, mouse; details: for antidepressant-like activity / effect on immobility time in FST: male Swiss Webster mice, IP, immobility during last 4 min of 6 min swim
# Protocol: (§1) Locomotor Activity and the FST. To evaluate the isolated compounds for antidepressant-like activity, male Swiss Webster mice (Harlan, Indianapolis, Ind.) (25-30 g weight) were used. Animals were housed in groups of five with a 12 h light/12 h dark cycle. Food and water were provided at libitum. All procedures involving animals were performed as approved by the Institutional Animal Care and Use Committee of the University of Mississippi. Animals were randomly divided into groups (n=6-10/group). Each group was injected IP with either the compound (1-20 mg/kg), desipramine (20 mg/kg), or vehicle (saline, 10% ethanol or 10% ethanol/1% DMSO). Following injection, locomotor activity was monitored using an automated activity monitoring system (San Diego Instruments, San Diego, Calif.). Each mouse was placed in a Plexiglas enclosure and locomotor activity was recorded as the number of photobeam interruptions for 30 min after drug injection. The activity for the last ten min was quantified and analyzed. Immediately at the end of the locomotor session, individual mice were subjected to the FST. The mice were individually placed in a clear plastic cylinder (23 cm high, 10 cm internal diameter) filled with deionized water (8 cm high) at 25° C. The mice were recorded with a video camera (positioned at about 30 cm above the cylinder) for a total of 6 min. The total period of immobility during the last 4 min was timed by three independent observers. The mean immobility time was then calculated. A mouse was judged to be immobile when it remained afloat, making only minimal movements to keep its head above water.
# (§2) For the FST, immobility times of the three independent rates were averaged for each mouse and data were analyzed using one way analysis of variance (ANOVA) followed by Bonferroni Multiple comparison posthoc tests to determine statistical differences from the corresponding vehicle control. Chick distress vocalization data were analyzed by two-way repeated measures ANOVA, one-way ANOVA and simple effects analyses with post-hoc comparisons conducted using Fisher's LSD test. p-Values less than 0.05 were considered statistically significant.
# (§3) Porsolt R D, et al. Behavioral Despair In Mice: A Primary Screening Test for Antidepressants, 229 Arch. Int. Pharmacodyn. 327-36 (1977). […] In order to control for false positives, as has been previously observed with psychostimulants, Cryan, J., et al. Assessing Substrates Underlying The Behavioral Effects Of Antidepressants Using The Modified Rat Forced Swimming Test. 29 Neurosci Biobehav Rev. 547-69 (2005) locomotor activity of the animals was monitored using an automated photobeam activity monitoring system. Lucki. I. The Forced Swimming Test As A Model For Core And Component Behavioral Effects Of Antidepressant Drugs. 8 Behav. Pharmacol. 522-32 (1997).
# Male DBA2/J mice = test: Mouse tail suspension test (TST); type: in vivo; details: i.p., versus vehicle
# Text: Based on the data collected from the FST, the antidepressant action of aaptamine. 5,6-dibromo-N,N-dimethyltryptamine, and 3-bromotyramine was examined in the mouse tail suspension test (TST), another model highly predictive of antidepressant action. Similar to the FST, this test depends on the depressive behavior elicited by the animals when placed in an inescapable situation, in this case suspending the animal by its tail. Male DBA2/J mice were used for this test.
# In fact, higher doses seem to increase immobility time (FIG. 9C). […] However, such effect was only evident at the 40 mg/kg dose (compared to 10 and 20 mg/kg dose in the FST) (FIG. 9D).
# 5-HT2B receptors = 5-HT2B receptors (UniProt P41595); test: In vitro receptor binding assay, 5-HT2B; parameters: species or system human or rodent; details: read-out: Ki 5-HT2B; preliminary data
# Protocol: (§4) Evaluation of binding affinity of isolated compounds to serotonin receptors. In vitro testing of isolated compounds was completed using a small panel of receptor binding assays and then validated in a comprehensive panel by the NIMH Psychoactive Drug Screening Program. Pharmacological and functional screening of isolated molecules was performed on cloned human or rodent CNS receptors, channels, and transporters. Hu, J-F., et al. New Antiinfective and Human 5-HT2 Receptor Binding Natural and Semisynthetic Compounds from the Jamaican Sponge Smenospongia aurea. 65 Jour. of Nat. Prod. 476-80 (2002).
# serotonin receptors = test: Affinity to serotonin receptors (receptor binding panel); parameters: species or system human or rodent
# Protocol: as §4, §3
# 5-HT2C = molecular target: T1, 5-HT2C (UniProt P28335); test: In vitro receptor binding assay, 5-HT2C; parameters: species or system human or rodent; details: read-out: Ki 5-HT2C; preliminary data
# T1 sequence (P28335 1-458): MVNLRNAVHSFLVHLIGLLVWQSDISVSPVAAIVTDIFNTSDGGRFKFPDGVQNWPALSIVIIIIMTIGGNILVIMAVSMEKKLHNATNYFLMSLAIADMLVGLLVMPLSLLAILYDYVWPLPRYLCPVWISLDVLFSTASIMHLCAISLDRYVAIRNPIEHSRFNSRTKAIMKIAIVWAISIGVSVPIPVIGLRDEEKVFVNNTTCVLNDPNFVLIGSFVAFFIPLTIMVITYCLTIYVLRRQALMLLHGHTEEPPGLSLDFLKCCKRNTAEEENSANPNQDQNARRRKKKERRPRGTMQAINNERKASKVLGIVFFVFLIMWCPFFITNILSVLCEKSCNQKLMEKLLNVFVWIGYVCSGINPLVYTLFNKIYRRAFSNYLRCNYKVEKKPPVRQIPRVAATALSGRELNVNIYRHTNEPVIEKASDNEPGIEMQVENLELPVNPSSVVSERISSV
# Protocol: as §4
# male Swiss Webster mice [2] = test: Locomotor activity test, Swiss Webster mice; type: in vivo, mouse; details: IP, photobeam interruptions, versus vehicle
# Protocol: as §1
# (§5) Effect of select compounds on locomotor activity. Since reductions in immobility time is the primary criterion to assess antidepressant like activity in both the FST and TST, it is crucial to confirm that the effects observed in both tests are not attributed to specific stimulant action of the tested compounds, which would be reflected as enhancement of the locomotor activity. Accordingly, the effect of tested compounds on locomotor activity was evaluated using an automated activity monitoring system.
# 5HT2A receptor [3] = molecular target: T2, 5HT2A receptor (Homo sapiens, UniProt P28223); test: In vitro receptor binding assay, 5-HT2A; parameters: species or system human or rodent; details: read-out: Ki 5-HT2A; preliminary data
# T2 sequence (P28223 whole entry): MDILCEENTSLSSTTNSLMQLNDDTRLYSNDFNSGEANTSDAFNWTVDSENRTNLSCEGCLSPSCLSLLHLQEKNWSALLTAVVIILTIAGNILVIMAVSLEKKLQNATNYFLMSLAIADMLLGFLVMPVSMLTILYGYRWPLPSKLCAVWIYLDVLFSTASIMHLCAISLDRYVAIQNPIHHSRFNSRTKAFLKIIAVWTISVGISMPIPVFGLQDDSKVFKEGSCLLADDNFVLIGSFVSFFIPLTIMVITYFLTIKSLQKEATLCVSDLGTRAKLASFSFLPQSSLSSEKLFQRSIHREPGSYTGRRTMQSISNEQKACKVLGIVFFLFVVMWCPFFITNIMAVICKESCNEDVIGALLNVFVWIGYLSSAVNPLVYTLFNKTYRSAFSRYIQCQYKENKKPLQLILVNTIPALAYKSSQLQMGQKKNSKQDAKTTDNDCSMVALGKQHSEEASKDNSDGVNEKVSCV
# Protocol: as §4
# 5-HT6 = 5-HT6 (UniProt P50406); test: In vitro receptor binding assay, 5-HT6; parameters: species or system human or rodent; details: read-out: Ki 5-HT6; preliminary data
# Protocol: as §4
# white-leghorn cockerels = test: Chick anxiety-depression continuum model (SCADM); type: in vivo; details: 30 mg/kg dose
# Protocol: 5,6-Dibromo-N,N-dimethyltryptamine (1) was evaluated in the FST and chicken anxiety-depression model. […] In the chick anxiety-depression continuum model, socially raised chicks are separated from conspecifics during a two hour test session. […] Previous studies have shown the first 5 min block to model the anxiety phase whereby a diverse set of anxiolytic compounds reduce distress vocalizations and that the last 90 min of the test session models the depressive phase of the model whereby antidepressants increase distress vocalizations (i.e., block the onset of behavioral despair). Sufka, K. J. et al.; 17 C. M. Behav.
# Sulfka Chick Anxiety-Depression Model (SCADM) Test. Group housed white-leghorn cockerels (Cal-Maine W36) were tested at ages 5-6 days post-hatch. […] Vocalizations were recorded in 5-min blocks over a 120 min test period. […]
# as §2
# 5HT2A receptor [4] = molecular target: T2, 5HT2A receptor; details: human serotonin receptor, reported; cited from earlier work
# 5HT2C receptor = molecular target: T3, 5HT2C receptor (Homo sapiens, UniProt P28335); details: cited from earlier work; for Ki: human serotonin receptor, reported
# T3 sequence (P28335 33-458): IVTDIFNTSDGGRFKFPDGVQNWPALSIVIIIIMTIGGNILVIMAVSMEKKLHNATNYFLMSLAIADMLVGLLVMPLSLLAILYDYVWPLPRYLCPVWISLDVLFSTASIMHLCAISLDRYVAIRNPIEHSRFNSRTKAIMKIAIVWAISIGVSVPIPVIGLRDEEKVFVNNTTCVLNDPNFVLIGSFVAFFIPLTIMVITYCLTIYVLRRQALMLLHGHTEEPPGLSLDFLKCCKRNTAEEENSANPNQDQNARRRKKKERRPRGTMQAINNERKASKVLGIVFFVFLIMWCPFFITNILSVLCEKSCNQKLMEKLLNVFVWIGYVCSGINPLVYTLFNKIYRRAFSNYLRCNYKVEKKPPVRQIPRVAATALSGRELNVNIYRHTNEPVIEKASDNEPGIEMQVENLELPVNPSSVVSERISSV
# DBA2/J mice = test: Locomotor activity test, DBA2/J mice; type: in vivo, mouse; details: versus vehicle
# Protocol: as §5
# However, Tukey's post-hoc tests confirmed that there were no statistical differences between the vehicle controls, or compounds from their respective vehicle controls (FIG. 10A). […] In DBA2/J mice, the pattern of responding in the locomotor studies was similar to that observed in the Swiss Webster mice (FIG. 10B). […] It is thus evident that the drug/dose combinations that produced antidepressant-like effects in both the FST and TST were not associated with confounding stimulant effects effect of select compounds in chick anxiety/depression model: […]
molecule,measurement,setting,value
"CN(C)CCc1c[nH]c2cc(Br)c(Br)cc12 [5,6-dibromo-N,N-dimethyltryptamine]",antidepressant-like activity / effect on immobility time in FST,male Swiss Webster mice [1]; versus vehicle,significant antidepressant-like action at only the 20 mg/kg dose
same,antidepressant-like activity / effect on immobility time in FST,"male Swiss Webster mice [1]; versus vehicle, listed as 5,6-Dibromo-N,N-dimethyltryptamine",significant antidepressant-like activity; also recorded: significantly reduced the immobility time only at the 20 mg/kg dose
same,antidepressant-like action / immobility in tail suspension test,Male DBA2/J mice,strong antidepressant-like action at the 5 mg/kg dose only
same,Ki,5-HT2B receptors,0.011 µM
same,affinities to serotonin receptors,serotonin receptors,moderate affinities
same,Ki,5-HT2C,0.187 µM
same,effect on locomotor activity,male Swiss Webster mice [2],no statistically significant difference; also recorded: nonsignificant trend toward decreasing locomotor activity
same,Ki,5HT2A receptor [3],0.243 µM
same,Ki,5-HT6,0.048 µM
same,"separation distress vocalizations, depression phase",white-leghorn cockerels; 30-120 min of test session,elevating separation distress vocalizations in the final 30 min of the depression phase
same,"separation distress vocalizations, anxiety phase",white-leghorn cockerels; first 5 min of test session,attenuating separation distress vocalizations in the anxiety phase
"CN(C)CCc1c[nH]c2ccc(Br)cc12 [5-bromo-N,N-dimethyltryptamine]",antidepressant-like activity / effect on immobility time in FST,male Swiss Webster mice [1]; versus vehicle,did not exhibit antidepressant-like activity
same,effect on locomotor activity,male Swiss Webster mice [2],significant reduction of locomotor activity
same,effect on locomotor activity,male Swiss Webster mice [2]; listed as 2,significant sedative effect
CN1C(=N)NC(=Cc2c[nH]c3cc(Br)ccc23)C1=O [6-bromo-2′-de-N-methylaplysinopsin],Ki,5HT2A receptor [4],> 100 µM
same,selectivity to 5HT2C receptors,5HT2C receptor; 5HT2C over 5HT2A,40 fold
same,Ki,5HT2C receptor,2.3 µM
CN1C(=N)N(C)/C(=C/c2c[nH]c3cc(Br)ccc23)C1=O [6-bromoaplysinopsin],Ki,5HT2A receptor [4],2 µM
same,Ki,5HT2C receptor,0.33 µM
"Oc1cc2ccnc3c2c(c1O)NC=C3 [8,9-demethylaaptamine]",antidepressant-like activity / effect on immobility time in FST,male Swiss Webster mice [1]; versus vehicle,Neither
same,affinities to serotonin receptors,serotonin receptors,moderate affinities
"NCCc1ccc(O)c(Br)c1 [216/218, 2-(3′-bromo-4′hydroxyphenol)-ethanamine]",antidepressant-like activity / effect on immobility time in FST,male Swiss Webster mice [1]; versus vehicle,dose dependent reduction in immobility
same,effect on locomotor activity,DBA2/J mice,did not alter the locomotor activity
same,antidepressant-like action / immobility in tail suspension test,Male DBA2/J mice,significant antidepressant action
same,affinities to serotonin receptors,serotonin receptors,moderate affinities
same,effect on locomotor activity,male Swiss Webster mice [2],did not alter the locomotor activity
"CN1C(=N)N(C)/C(=C/c2c[nH]c3ccccc23)C1=O [Aplysinopsin, aplysinopsin]",antidepressant-like activity / effect on immobility time in FST,male Swiss Webster mice [1]; versus vehicle,did not show any significant antidepressant-like activity
COc1cc2ccnc3c2c(c1OC)NC=C3 [aaptamine],reduction in immobility time in FST,"male Swiss Webster mice [1]; 20 mg/kg dose, versus vehicle",36%
"CN(C)CCCC1(c2ccc(F)cc2)OCc2cc(C#N)ccc21 (stereo not drawn) [citalopram, reference compound]",reduction in immobility time in FST,"male Swiss Webster mice [1]; 5 mg/kg dose, versus saline vehicle",40%
"CNCCCN1c2ccccc2CCc2ccccc21 [desipramine, reference compound]",reduction in immobility time in FST,"male Swiss Webster mice [1]; 20 mg/kg dose, versus vehicle",27%
same,antidepressant-like action / immobility in tail suspension test,Male DBA2/J mice,significant reduction in immobility
same,effect on locomotor activity,male Swiss Webster mice [2],no significant difference in locomotor activity
COc1cc2ccnc3c2c(c1O)N(C)C=C3 [isoaaptamine],antidepressant-like activity / effect on immobility time in FST,male Swiss Webster mice [1]; versus vehicle,significantly increased immobility time in a dose-dependent manner
same,affinities to serotonin receptors,serotonin receptors,moderate affinities
N-3′-ethylaplysinopsin,Ki,5HT2A receptor [4],1.7 µM
same,Ki,5HT2C receptor,3.5 µM
